Laboratory results published in patent publication US9957251B2 (Takeda Pharmaceutical Company Limited, priority 2014, dated 2018).

Tests used:
[1] = test system: human multiple myeloma RPMI8226 cells; assay: Inhibitory activity against human multiple myeloma RPMI8226 cell growth (CellTiter-Glo); assay type: cell-based; details: Homo sapiens, RPMI-8226, 192 h, 1 μM of the test compound, cultured for 8 days; read-out: Percent inhibition of RPMI8226 cell growth (%)
Protocol: The compound of the present invention was evaluated for its inhibitory activity against human multiple myeloma RPMI8226 cell growth by the following method.
A suspension of human multiple myeloma RPMI8226 cells (purchased from the Health Protection Agency) was inoculated at 40 μL (300 cells/well) to a 384-well plate and cultured at 37° C. for 1 day in a 5% CO2 incubator. After the culture, each test compound solution was added thereto at a test concentration of 1 μM using TECAN D300, and the cells were further cultured for 8 days. After the culture, CellTiter-Glo™ Luminescent Cell Viability Assay reagent (Promega) was added at 40 μL/well to a 384-well plate, and the amount of luminescence was measured using a luminometer. Inhibitory activity against human multiple myeloma RPMI8226 cell growth (percent inhibition (%)) of the test compound was calculated according to the following formula, which is based on the hypothesis that the amount of residual ATP reflects the number of cells. In this formula, 100% control represents the amount of luminescence from a well with only 0.1% DMSO added. Percent inhibition (%)=(1−(amount of luminescence of the test compound)÷(100% control))×100

CDK8/CycC = biological target: T1, CDK8/CycC (Homo sapiens, UniProt P49336); assay: CDK8 inhibitory activity (TR-FRET, Kinase Tracer-236 displacement); assay type: binding; details: 1 μM of the test compound; read-out: Percent inhibition of CDK8 activity (%)
T1 construct: purchased Carna Biosciences
T1 sequence (P49336 whole entry): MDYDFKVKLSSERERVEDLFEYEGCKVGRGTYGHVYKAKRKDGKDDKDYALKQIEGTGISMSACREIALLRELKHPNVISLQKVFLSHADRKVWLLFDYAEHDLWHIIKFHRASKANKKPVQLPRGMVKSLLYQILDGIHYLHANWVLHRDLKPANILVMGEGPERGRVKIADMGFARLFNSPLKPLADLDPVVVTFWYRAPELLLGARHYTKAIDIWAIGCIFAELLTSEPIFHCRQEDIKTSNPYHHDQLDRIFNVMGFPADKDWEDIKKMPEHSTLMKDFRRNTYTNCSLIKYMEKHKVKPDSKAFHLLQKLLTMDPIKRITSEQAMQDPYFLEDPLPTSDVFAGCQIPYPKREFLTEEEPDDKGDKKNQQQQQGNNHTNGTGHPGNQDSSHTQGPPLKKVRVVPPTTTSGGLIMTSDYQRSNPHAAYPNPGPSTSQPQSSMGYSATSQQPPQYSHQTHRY
T1 sequence (P24863 whole entry partner): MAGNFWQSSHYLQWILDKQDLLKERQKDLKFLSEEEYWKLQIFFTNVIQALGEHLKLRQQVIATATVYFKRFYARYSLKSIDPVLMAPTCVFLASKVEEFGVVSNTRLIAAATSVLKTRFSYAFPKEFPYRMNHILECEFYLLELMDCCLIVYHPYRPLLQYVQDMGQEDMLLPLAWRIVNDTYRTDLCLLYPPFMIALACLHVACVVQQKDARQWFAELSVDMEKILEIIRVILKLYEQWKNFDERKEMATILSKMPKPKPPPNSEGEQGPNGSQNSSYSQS
Protocol: (§1) The compound of the present invention was evaluated for its CDK8 inhibitory activity and CDK19 inhibitory activity by the following method. […] The primary diluted solution was dispensed in the amount of 2 μL/well to a 384-well plate, and then, a mixed solution of Eu^3+ Cryptate conjugated mouse monoclonal antibody anti-glutathione S-transferase (Cisbio) diluted 267-fold with an assay buffer and 60 nM Kinase Tracer-236 (Life technologies) was added thereto at 2 μL/well. After the addition, each kinase solution (84 ng/mL CDK8/CycC (Carna Biosciences) diluted with an assay buffer used for CDK8 inhibitory activity measurement, and 87 ng/mL CDC2L6/CycC (Carna Biosciences) diluted with an assay buffer used for CDK19 inhibitory activity measurement) was further added thereto at 2 μL/well. After the addition, the plate was left standing at room temperature for 1 hour, and then, the fluorescence intensity (excitation wavelength 320 nm, fluorescence wavelength 615 nm, 665 nm, delay time 50 μsec) was measured using an EnVision plate reader (PerkinElmer).

CDK19 (CDC2L6/CycC) = biological target: T2, CDK19 (CDC2L6/CycC) (Homo sapiens, UniProt Q9BWU1); assay: CDK19 inhibitory activity (TR-FRET, Kinase Tracer-236 displacement); assay type: binding; details: 1 μM of the test compound; read-out: Percent inhibition of CDK19 activity (%)
T2 construct: purchased Carna Biosciences
T2 sequence (Q9BWU1 whole entry): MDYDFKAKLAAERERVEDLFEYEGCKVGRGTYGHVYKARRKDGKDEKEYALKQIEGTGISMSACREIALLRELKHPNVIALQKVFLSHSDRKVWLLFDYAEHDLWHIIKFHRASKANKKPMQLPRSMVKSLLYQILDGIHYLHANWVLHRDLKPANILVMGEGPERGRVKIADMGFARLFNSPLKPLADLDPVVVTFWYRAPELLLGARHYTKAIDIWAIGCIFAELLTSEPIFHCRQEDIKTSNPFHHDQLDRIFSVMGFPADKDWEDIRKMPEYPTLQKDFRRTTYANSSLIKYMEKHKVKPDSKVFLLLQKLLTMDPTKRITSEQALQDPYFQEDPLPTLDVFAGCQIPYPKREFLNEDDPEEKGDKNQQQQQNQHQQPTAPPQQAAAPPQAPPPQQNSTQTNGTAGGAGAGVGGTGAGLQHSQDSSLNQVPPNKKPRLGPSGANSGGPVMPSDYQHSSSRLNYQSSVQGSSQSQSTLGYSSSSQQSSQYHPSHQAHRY
T2 sequence (P24863 whole entry partner): as the sequence (P24863 whole entry partner) above
Protocol: as §1

Structure (SMILES) | inhibition at 1 µM [1] [%] | inhibition at 1 µM (CDK8/CycC) [%] | inhibition at 1 µM (CDK19 (CDC2L6/CycC)) [%]
CCn1cc(-c2ccncc2CCC(=O)Nc2ccc(CN3CCOCC3)cc2)cn1 [Example 99, 3-(4-(1-Ethyl-1H-pyrazol-4-yl)pyridin-3-yl)-N-(4-(morpholin-4-ylmethyl)phenyl)propanamide] | 62 | 90 | 85
CC1CN(Cc2ccc(NC(=O)/C=C/c3cnccc3-c3cnn(C4CC4)c3)cc2)C1 [Example 322, (2E)-3-(4-(1-cyclopropyl-1H-pyrazol-4-yl)pyridin-3-yl)-N-(4-((3-methylazetidin-1-yl)methyl)phenyl)acrylamide] | 55 | 102 | 97
O=C(/C=C/c1cnccc1-c1cnn(Cc2ccccc2)c1)Nc1ccc(CN2CCOCC2)cc1 [Example 93, (2E)-3-(4-(1-benzyl-1H-pyrazol-4-yl)pyridin-3-yl)-N-(4-(morpholin-4-ylmethyl)phenyl)acrylamide] | 63 | 101 | 101
Cn1cc(-c2ccncc2/C=C/C(=O)Nc2ccc(CN3CCN4CCCC4C3)cc2)cn1 (stereo not drawn) [Example 78, (2E)-N-(4-(hexahydropyrrolo[1,2-a]pyrazin-2(1H)-ylmethyl)phenyl)-3-(4-(1-methyl-1H-pyrazol-4-yl)pyridin-3-yl)acrylamide] | 59 | 100 | 74
Cn1cc(-c2ccncc2/C=C/C(=O)Nc2ccc(CN3CCOCC3)cc2F)cn1 [Example 41, (2E)-N-(2-Fluoro-4-(morpholin-4-ylmethyl)phenyl)-3-(4-(1-methyl-1H-pyrazol-4-yl)pyridin-3-yl)acrylamide] | 56 | 99 | 97
Cn1cc(-c2ccncc2/C=C/C(=O)Nc2ccc(CC#N)cc2)cn1 [Example 284, (2E)-N-(4-(cyanomethyl)phenyl)-3-(4-(1-methyl-1H-pyrazol-4-yl)pyridin-3-yl)acrylamide] | 57 | 92 | 95
O=C(/C=C/c1cnccc1-c1ccns1)Nc1ccc(CN2CCOCC2)cc1 [Example 196, (2E)-N-(4-(morpholin-4-ylmethyl)phenyl)-3-(4-(1,2-thiazol-5-yl)pyridin-3-yl)acrylamide] | 54 | 101 | 98
O=C(/C=C/c1cnccc1-c1cnn(C2CC2)c1)Nc1ccc(CN2CC(F)(F)C2)cc1F [Example 370, (2E)-3-(4-(1-cyclopropyl-1H-pyrazol-4-yl)pyridin-3-yl)-N-(4-((3,3-difluoroazetidin-1-yl)methyl)-2-fluorophenyl)acrylamide] | 51 | 105 | 74
Cn1cc(-c2ccncc2/C=C/C(=O)Nc2ccc(Cn3ccnc3)cc2)cn1 [Example 275, (2E)-N-(4-(1H-Imidazol-1-ylmethyl)phenyl)-3-(4-(1-methyl-1H-pyrazol-4-yl)pyridin-3-yl)acrylamide] | 64 | 102 | 98
CC(C)(O)Cc1ccc(NC(=O)/C=C/c2cncc(F)c2-c2cnn(C3CC3)c2)c(F)c1 [Example 332, (2E)-3-(4-(1-Cyclopropyl-1H-pyrazol-4-yl)-5-fluoropyridin-3-yl)-N-(2-fluoro-4-(2-hydroxy-2-methylpropyl)phenyl)acrylamide] | 60 | 102 | 99
O=C(/C=C/c1cnccc1-c1ccc2[nH]ncc2c1)Nc1ccc(CN2CCOCC2)cc1 [Example 242, (2E)-3-(4-(1H-indazol-5-yl)pyridin-3-yl)-N-(4-(morpholin-4-ylmethyl)phenyl)acrylamide] | 55 | 96 | 97
O=C(/C=C/c1cnccc1-c1ccc2ncn(CC3CC3)c2c1)Nc1ccc(CN2CCOCC2)cc1 [Example 283, (2E)-3-(4-(1-(Cyclopropylmethyl)-1H-benzimidazol-6-yl)pyridin-3-yl)-N-(4-(morpholin-4-ylmethyl)phenyl)acrylamide] | 60 | 95 | 96
Cc1nn(C)cc1-c1ccncc1/C=C/C(=O)Nc1ccc(CCc2nnco2)cc1 [Example 19, (2E)-3-(4-(1,3-dimethyl-1H-pyrazol-4-yl)pyridin-3-yl)-N-(4-(2-(1,3,4-oxadiazol-2-yl)ethyl)phenyl)acrylamide] | 54 | 100 | 98
O=C(/C=C/c1cnccc1-c1cnn(C2CCC2)c1)Nc1ccc(CN2CCOCC2)cc1 [Example 258, (2E)-3-(4-(1-cyclobutyl-1H-pyrazol-4-yl)pyridin-3-yl)-N-(4-(morpholin-4-ylmethyl)phenyl)acrylamide] | 54 | 96 | 96
CC(c1ccc(NC(=O)/C=C/c2cnccc2-c2cnn(C)c2)cc1)N1CCOCC1 (stereo not drawn) [Example 43, (2E)-3-(4-(1-methyl-1H-pyrazol-4-yl)pyridin-3-yl)-N-(4-(1-(morpholin-4-yl)ethyl)phenyl)acrylamide] | 57 | 96 | 98
Cn1cc(-c2ccncc2/C=C/C(=O)Nc2ccc(CN3CCOCC3)cc2)cn1 [Example 31, (2E)-3-(4-(1-Methyl-1H-pyrazol-4-yl)pyridin-3-yl)-N-(4-(morpholin-4-ylmethyl)phenyl)acrylamide] | 60 | 100 | 98
O=C(/C=C/c1cnccc1-c1cnn(CC2(F)CC2)c1)Nc1ccc(CN2CCOCC2)cc1 [Example 288, (2E)-3-(4-(1-((1-Fluorocyclopropyl)methyl)-1H-pyrazol-4-yl)pyridin-3-yl)-N-(4-(morpholin-4-ylmethyl)phenyl)acrylamide] | 57 | 99 | 101
O=C(/C=C/c1cnccc1-c1cncs1)Nc1ccc(CN2CCOCC2)cc1 [Example 195, (2E)-N-(4-(morpholin-4-ylmethyl)phenyl)-3-(4-(1,3-thiazol-5-yl)pyridin-3-yl)acrylamide] | 52 | 94 | 97
O=C(/C=C/c1cnccc1-c1cnn(CC2CC2)c1)Nc1ccc(CN2CCOCC2)cc1 [Example 45, (2E)-3-(4-(1-(Cyclopropylmethyl)-1H-pyrazol-4-yl)pyridin-3-yl)-N-(4-(morpholin-4-ylmethyl)phenyl)acrylamide] | 55 | 98 | 99
CC(=O)n1cc(-c2ccncc2/C=C/C(=O)Nc2ccc(CN3CCOCC3)cc2)cn1 [Example 218, (2E)-3-(4-(1-Acetyl-1H-pyrazol-4-yl)pyridin-3-yl)-N-(4-(morpholin-4-ylmethyl)phenyl)acrylamide] | 65 | 96 | 101
CC(=O)N(C)Cc1cc(NC(=O)/C=C/c2cnccc2-c2cnn(C)c2)ccc1C [Example 246, (2E)-N-(3-((acetyl(methyl)amino)methyl)-4-methylphenyl)-3-(4-(1-methyl-1H-pyrazol-4-yl)pyridin-3-yl)acrylamide] | 49 | 95 | 93
